Measurements reported in patent publication US10781181B2, “N-((het) arylmethyl)-heteroaryl-carboxamides compounds as plasma kallikrein inhibitors” (Kalvista Pharmaceuticals Limited, priority 2014, dated 2020).
Where two headings read alike, the source gives them in different places.

Columns and labels:
Format in all cases: biochemical
Human plasma kallikrein = Human plasma kallikrein (Homo sapiens (Human), UniProt P03952); test: Determination of the IC50 for plasma kallikrein; details: read-out: IC50 (human PKal)
Chain of Human plasma kallikrein (P03952 391-638): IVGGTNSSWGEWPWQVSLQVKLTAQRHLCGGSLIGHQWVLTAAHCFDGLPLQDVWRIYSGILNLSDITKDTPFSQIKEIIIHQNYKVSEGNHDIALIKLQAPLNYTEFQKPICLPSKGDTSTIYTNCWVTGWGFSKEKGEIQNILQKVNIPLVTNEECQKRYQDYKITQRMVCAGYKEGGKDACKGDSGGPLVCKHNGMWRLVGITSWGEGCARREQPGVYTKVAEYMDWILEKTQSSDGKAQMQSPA
Chain of Human plasma kallikrein (P03952 20-390 partner): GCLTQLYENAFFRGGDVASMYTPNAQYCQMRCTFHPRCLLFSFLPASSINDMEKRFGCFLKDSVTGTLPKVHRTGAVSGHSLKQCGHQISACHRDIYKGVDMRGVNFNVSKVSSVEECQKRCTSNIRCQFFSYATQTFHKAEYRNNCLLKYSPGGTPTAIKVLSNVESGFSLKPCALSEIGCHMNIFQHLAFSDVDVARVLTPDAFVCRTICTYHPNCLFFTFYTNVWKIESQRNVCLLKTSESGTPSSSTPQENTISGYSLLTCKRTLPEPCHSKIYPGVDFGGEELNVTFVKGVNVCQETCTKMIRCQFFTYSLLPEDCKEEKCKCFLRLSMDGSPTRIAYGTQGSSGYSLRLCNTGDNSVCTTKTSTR
Description: Determination of the IC50 for Plasma Kallikrein
(§1) Human plasma kallikrein (Protogen) was incubated at 25° C. with the fluorogenic substrate H-DPro-Phe-Arg-AFC and various concentrations of the test compound. Residual enzyme activity (initial rate of reaction) was determined by measuring the change in […] at 410 nm and the IC50 value for the test compound was determined.

Human FXIa = Human FXIa (Homo sapiens (Human), UniProt P03951); test: Determination of the % inhibition for FXIa; details: for inhibition at 40 µM: read-out: % Inhibition @ 40 μM (human FXIa)
Chain of Human FXIa (P03951 388-625 limits assumed): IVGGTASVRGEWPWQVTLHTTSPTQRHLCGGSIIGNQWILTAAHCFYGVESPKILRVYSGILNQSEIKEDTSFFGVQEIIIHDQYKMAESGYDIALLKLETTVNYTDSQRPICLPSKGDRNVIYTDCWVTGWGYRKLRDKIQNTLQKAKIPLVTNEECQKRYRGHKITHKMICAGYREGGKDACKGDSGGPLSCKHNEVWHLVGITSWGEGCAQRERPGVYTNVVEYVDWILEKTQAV
Chain of Human FXIa (P03951 19-387 partner limits assumed): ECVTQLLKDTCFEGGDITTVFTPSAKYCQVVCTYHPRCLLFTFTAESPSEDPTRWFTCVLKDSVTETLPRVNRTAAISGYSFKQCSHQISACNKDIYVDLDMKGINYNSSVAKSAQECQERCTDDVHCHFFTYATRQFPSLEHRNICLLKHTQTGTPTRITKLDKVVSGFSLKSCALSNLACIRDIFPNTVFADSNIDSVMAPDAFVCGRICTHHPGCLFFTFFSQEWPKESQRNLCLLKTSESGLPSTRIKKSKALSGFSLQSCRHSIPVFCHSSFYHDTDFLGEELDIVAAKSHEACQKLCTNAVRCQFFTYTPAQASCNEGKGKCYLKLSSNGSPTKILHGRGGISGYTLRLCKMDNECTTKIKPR
Description: Determination of the % Inhibition for FXIa
Human FXIa (Enzyme Research Laboratories) was incubated at 25° C. with the fluorogenic substrate Z-Gly-Pro-Arg-AFC and 40 μM of the test compound. Residual enzyme activity (initial rate of reaction) was determined by measuring the change in […].

Human KLK1 = Human KLK1 (Homo sapiens (Human), UniProt P06870); test: Determination of the IC50 for KLK1; details: human KLK1, 25° C., substrate H-DVal-Leu-Arg-AFC
Chain of Human KLK1 (P06870 25-262): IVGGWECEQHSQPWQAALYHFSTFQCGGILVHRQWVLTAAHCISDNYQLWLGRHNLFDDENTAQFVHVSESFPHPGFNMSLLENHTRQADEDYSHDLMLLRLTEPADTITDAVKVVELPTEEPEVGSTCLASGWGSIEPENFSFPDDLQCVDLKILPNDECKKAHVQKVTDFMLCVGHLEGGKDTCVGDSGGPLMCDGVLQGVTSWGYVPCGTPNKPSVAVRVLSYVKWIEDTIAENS
Description: Determination of the IC50 for KLK1
as §1, with “KLK1 (Callbiochem)” for “plasma kallikrein (Protogen)”, “H-DVal-Leu-Arg-AFC” for “H-DPro-Phe-Arg-AFC”

[1] = 40 μM of the test compound, human FXIa, 25° C.

SMILES | IC50 (Human plasma kallikrein) | inhibition at 40 µM (Human FXIa; [1]) | IC50 (Human KLK1) | inhibition at 40 µM (Human FXIa) | % Inhibition @ 40 μM (human FXIa) (Human FXIa; [1])
Nc1nn(Cc2ccc(-n3ccccc3=O)cc2)cc1C(=O)NCCOc1cccc(Cl)c1 [Example 52, 3-amino-N-[2-(3-chlorophenoxy)ethyl]-1-{[4-(2-oxopyridin-1-yl)phenyl]methyl}pyrazole-4-carboxamide] | 0.335 µM | 0% | > 40 µM |  | 
O=C(NCCOc1cccc(Cl)c1)c1cn(Cc2ccc(N3CCCC3)nc2)nc1C(F)(F)F [Example 28, N-[2-(3-chlorophenoxy)ethyl]-1-{[6-(pyrrolidin-1-yl)pyridin-3-yl]methyl}-3-(trifluoromethyl)pyrazole-4-carboxamide] | 2.39 µM | 0% | > 10 µM |  | 
Nc1nn(Cc2ccc(Cn3ccccc3=O)cc2)cc1C(=O)NCCOc1cc(Cl)cc(Cl)c1 [Example 31, 3-amino-N-[2-(3,5-dichlorophenoxy)ethyl]-1-({4-[(2-oxopyridin-1-yl)methyl]phenyl}methyl)pyrazole-4-carboxamide] | 0.646 µM | 47% | > 40 µM |  | 
Nc1nn(Cc2nc(Cc3ccccc3)no2)cc1C(=O)NCCOc1cccc(Cl)c1 [Example 90, 3-amino-1-[(3-benzyl-1,2,4-oxadiazol-5-yl)methyl]-N-[2-(3-chlorophenoxy)ethyl]pyrazole-4-carboxamide] | > 10 µM | 0% | > 40 µM |  | 
Nc1nn(Cc2ccc(C(=O)O)cc2)cc1C(=O)NCCOc1cccc(Cl)c1 [Example 69, 4-[(3-amino-4-{[2-(3-chlorophenoxy)ethyl]carbamoyl}pyrazol-1-yl)methyl]benzoic acid] | > 10 µM |  | > 40 µM | 0% | 
Nc1nn(Cc2ccc(Cn3ccccc3=O)cc2)cc1C(=O)NCCOc1cc(Cl)ccc1Cl [Example 34, 3-amino-N-[2-(2,5-dichlorophenoxy)ethyl]-1-({4-[(2-oxopyridin-1-yl)methyl]phenyl}methyl)pyrazole-4-carboxamide] | 0.0928 µM | 7% | > 40 µM |  | 
CN(C)c1nn(Cc2ccc(Cn3ccccc3=O)cc2)cc1C(=O)NCCOc1cccc(Cl)c1 [Example 35, N-[2-(3-chlorophenoxy)ethyl]-3-(dimethylamino)-1-({4-[(2-oxopyridin-1-yl)methyl]phenyl}methyl)pyrazole-4-carboxamide] | 0.122 µM | 1% | > 40 µM |  | 
Nc1nn(Cc2ccc(Cn3ccccc3=O)cc2)cc1C(=O)N[C@@H]1CCN(c2cccc(Cl)c2)C1=O [Example 110, 3-amino-N-[(3R)-1-(3-chlorophenyl)-2-oxopyrrolidin-3-yl]-1-({4-[(2-oxopyridin-1-yl)methyl]phenyl}methyl)pyrazole-4-carboxamide] | 0.004 µM | 13% | > 40 µM |  | 
Nc1nn(Cc2ccc(-c3ncccn3)cc2)cc1C(=O)NCCOc1cccc(Cl)c1 [Example 79, 3-amino-N-[2-(3-chlorophenoxy)ethyl]-1-{[4-(pyrimidin-2-yl)phenyl]methyl}pyrazole-4-carboxamide] | 5.87 µM | 9% | > 40 µM |  | 
Nc1nn(Cc2ccc(Cn3ccccc3=O)cc2)cc1C(=O)N[C@H]1CCN(c2cccc(Cl)c2)C1 [Example 105, 3-amino-N-[(3S)-1-(3-chlorophenyl)pyrrolidin-3-yl]-1-({4-[(2-oxopyridin-1-yl)methyl]phenyl}methyl)pyrazole-4-carboxamide] | 0.0038 µM | 0% | > 40 µM |  | 
Nc1nn(Cc2nc(-c3ccccc3)no2)cc1C(=O)NCCOc1cccc(Cl)c1 [Example 80, 3-amino-N-[2-(3-chlorophenoxy)ethyl]-1-[(3-phenyl-1,2,4-oxadiazol-5-yl)methyl]pyrazole-4-carboxamide] | 6.33 µM | 0% | > 40 µM |  | 
Nc1nn(Cc2cccc(-c3ccccc3)n2)cc1C(=O)NCCOc1cccc(Cl)c1 [Example 72, 3-amino-N-[2-(3-chlorophenoxy)ethyl]-1-[(6-phenylpyridin-2-yl)methyl]pyrazole-4-carboxamide] | 5.94 µM | 26% | > 40 µM |  | 
Nc1nn(Cc2ccc(CN3CCCCC3=O)cc2)cc1C(=O)NCCOc1cccc(Cl)c1 [Example 77, 3-amino-N-[2-(3-chlorophenoxy)ethyl]-1-({4-[(2-oxopiperidin-1-yl)methyl]phenyl}methyl)pyrazole-4-carboxamide] | 0.112 µM | 0% | > 40 µM |  | 
Nc1nn(Cc2ccc(Cn3ccccc3=O)cc2)cc1C(=O)NCCOc1cncc(Cl)c1 [Example 18, 3-amino-N-{2-[(5-chloropyridin-3-yl)oxy]ethyl}-1-({4-[(2-oxopyridin-1-yl)methyl]phenyl}methyl)pyrazole-4-carboxamide] | 2.01 µM | 0% | > 40 µM |  | 
Nc1nn(Cc2ccc(-n3cccn3)nc2)cc1C(=O)NCCOc1cccc(Cl)c1 [Example 88, 3-amino-N-[2-(3-chlorophenoxy)ethyl]-1-{[6-(pyrazol-1-yl)pyridin-3-yl]methyl}pyrazole-4-carboxamide] | 9.18 µM | 0% | > 40 µM |  | 
CNc1nn(Cc2ccc(Cn3ccccc3=O)cc2)cc1C(=O)NCCOc1cccc(Cl)c1 [Example 37, N-[2-(3-Chlorophenoxy)ethyl]-3-(methylamino)-1-({4-[(2-oxopyridin-1-yl)methyl]phenyl}methyl)pyrazole-4-carboxamide] | 0.0185 µM | 8% | > 40 µM |  | 
Nc1nn(Cc2ccc(Cn3ccccc3=O)cc2)cc1C(=O)NCC(=O)Nc1ccccc1Cl [Example 3, 2-{[3-amino-1-({4-[(2-oxopyridin-1-yl)methyl]phenyl}methyl)pyrazol-4-yl]formamido}-N-(2-chlorophenyl)acetamide] | 5.53 µM | 0% | > 10 µM |  | 
Cc1ccc(OCCNC(=O)c2cn(Cc3ccc(Cn4ccccc4=O)cc3)nc2N)cc1Cl [Example 15, 3-amlno-N-[2-(3-chloro-4-methylphenoxy)ethyl]-1-({4-[(2-oxopyridin-1-yl)methyl]phenyl}methyl)pyrazole-4-carboxamide] | 0.0246 µM |  | > 40 µM |  | 1%
Nc1nn(Cc2ccc(Cn3ccccc3=O)cc2)cc1C(=O)NCCOc1cccc(Cl)c1Cl [Example 29, 3-amino-N-[2-(2,3-dichlorophenoxy}ethyl]-1-({4-[(2-oxopyridin-1-yl)methyl]phenyl}methyl)pyrazole-4-carboxamide] | 2.93 µM | 0% | > 40 µM |  | 
CNC(=O)CN(C)c1cc(Cn2cc(C(=O)NCCOc3cccc(Cl)c3)c(N)n2)ccn1 [Example 74, 3-amino-N-[2-(3-chlorophenoxy)ethyl]-1-[(2-{methyl[(methylcarbamoyl)methyl]amino}pyridin-4-yl)methyl]pyrazole-4-carboxamide] | > 10 µM | 4% | > 40 µM |  | 
CNC(=O)CNc1cc(Cn2cc(C(=O)NCCOc3cccc(Cl)c3)c(N)n2)ccn1 [Example 68, 3-amino-N-[2-(3-chlorophenoxy)ethyl]-1-[(2-{[(methylcarbamoyl)methyl]amino}pyridin-4-yl)methyl]pyrazole-4-carboxamide] | > 10 µM | 0% | > 40 µM |  | 
